Here are results for one compound from US20090306200A1, “Prophylactic or Therapeutic Agent for Nocturnal Conduct Disorder Associated With Dementia” (Takeda Pharmaceutical Company Limited, priority 2005, published 2009).

Marks after values point to notes of the source that are not given here.

The experiment has as its system SAMP8/Ta Slc mice. Kind of experiment: Measurement of rotational motor activity in mouse (turning wheel; motor activity in light period). The format is in vivo. To be noted: for Motor Activity in light period, % of Pre: Pre value = 100%; for Motor Activity in light period, %: n = 9. How it is done: Animals: SAMP8/Ta Slc mice (16 weeks old), and SAMR1/Ta Slc mice (16 weeks old) as control mouse were used. After breeding in a rearing room, they were used after the age of 6-month-old to 8-month-old. A sole isolation breeding was conducted during the breeding. AB system of Neuroscience Co. was used for measurement. The mice were put in separate cages, and the turning wheel's rotation number for every minute by mouse was measured, and the data was analyzed as a motor activity for every hour. A turning wheel was equipped in the cage for measurement. The number in which the mouse rotated the turning wheel was automatically counted every minute with AB system (Neuroscience Co.), and recorded with time course as an amount of movement (motor activity). Using the total value of turning wheel's rotation number in habituation stage, each group was evenly grouped. Compound A was dissolved in water for injection, and water for injection was used as a vehicle. The solution and vehicle were administered as drinking water, respectively. The drinking water was replaced with new one every week. Pre: Habituation period (1 week) First week: Vehicle/Compound A 0.1-0.2 mg/kg/day Second week: Vehicle/Compound A 0.1-0.2 mg/kg/day Third week: Vehicle/Compound A 1-2 mg/kg/day Fourth week: Vehicle/Compound A 1-2 mg/kg/day Fifth week: Vehicle/Compound A 1-2 mg/kg/day The number of rotational movement which was automatically counted every minute by AB system (Neuroscience Co.) was tallied for every hour. Calculation was carried out according to the following sequences. (i) By calculating according to the following mathematical formula: (rotational motor activity in light period of a day)/(rotational motor activity in light period of a day+rotational motor activity in dark period of a day)×100, motor activity % in light period was determined. (ii) The mean value of motor activity % in light period was calculated for every week, and was made a representative value for every week. (iii) In addition, in case that the value of Pre was made 100%, rate of change of motor activity % in light period after administration was shown as % of Pre value. Statistical analysis was performed with t-test or Paired t-test for vehicle administration group and compound A administration group of SAMP8.

Setting [1] is: 1st week, Compound A 0.1-0.2 mg/kg/day in drinking water.
[2] abbreviates: 2nd week, Compound A 0.1-0.2 mg/kg/day in drinking water.
[3] abbreviates: 3rd week, Compound A 1-2 mg/kg/day in drinking water.
Where [4] appears, read: 4th week, Compound A 1-2 mg/kg/day in drinking water.
[5] abbreviates: 5th week, Compound A 1-2 mg/kg/day in drinking water.

As to `CCC(=O)NCC[C@@H]1CCc2ccc3c(c21)CCO3` [Compound A, (S)—N-[2-(1,6,7,8-tetrahydro-2H-indeno[5,4-b]furan-8-yl)ethyl]propionamide], the “abnormal behavior in light period of SAMP8” value (0.1-0.2 then 1-2 mg/kg/day in drinking water) was “inhibit dose-dependently”. Further, the “Motor Activity in light period, % of Pre” value is 97.67 % of Pre under setting [1]; 79.60 % of Pre under setting [2]; 70.25** % of Pre under setting [3]; 74.77* % of Pre under setting [4]; 71.64* % of Pre under setting [5]. The “Motor Activity in light period, %” value under setting [1] was 30.95%; the “Motor Activity in light period, %” value under setting [2] amounted to 24.58%; the “Motor Activity in light period, %” value under setting [3] is 22.82* %; the “Motor Activity in light period, %” value under setting [4] is on record as 23.75* %; the “Motor Activity in light period, %” value under setting [5] was 21.18** %. For the same compound, the “change of the motor activity % in light period and the % of Pre value compared to the vehicle administered group” value (first and second week, 0.1-0.2 mg/kg/day in drinking water) is reported as “there was not observed a change”. The “motor activity % in light period and the % of Pre value compared to the vehicle-administered group” value (third to fifth week, 1-2 mg/kg/day in drinking water) is recorded as “decreased”.
